System: rat
Assay: measurement of the cauda equina blood flow and the blood pressure in urethane-anesthetized rat
Format: in vivo
Conditions: continuous infusion through caudal vein for 30 minutes, dose not given; for the increase rate of the cauda equina blood flow: observed until 30 minutes after, laser-Doppler flowmetry; for decrease of the blood pressure: systemic blood pressure from left carotid artery
Method: The common procedure based on the fundamental biological means was used as all procedures. Furthermore, the measuring method of the present invention was modified to improve the accuracy and/or sensitivity of measurement for evaluating the compound of the present invention. The detailed experimental method was as follows. • (i) The measurement of the cauda equina blood flow and the blood pressure Experiment: 1.5g/kg of urethane was administered intraperitoneally to the rat to be anesthetized, and the catheter, which is for measurement of blood pressure and ventricular rate, was placed in left carotid artery in supine position. The rat was reversed to prone position and the lumbar part was incised in the median line. The laminectomy was given to the fifth lumbar vertebra and the spinal cord (cauda equina) was exposed. The cauda equina blood flow was measured by the laser-Doppler flowmetry (OMEGAFLD FLO-NI and ADVANCE LASER FLOWMETER ALF21N, OMEGA WAVE Inc.) through a noncontact probe (ST-N type, OMEGA WAVE Inc.) and recorded with LINEARCORDER (Graphtech). The systemic blood pressure and the ventricular rate were measured from a left carotid artery with amplifier for the pressure measurement (GOULD) through a pressure transducer and recorded with LINEARCORDER (Graphtech).
After confirming each parameter of blood pressure, ventricular rate and blood flow was stabilized, the test compound was administrated by continuous infusion through the winged needle placed in caudal vein for 30 minutes. It observed until 30 minutes after the administration and the increase rate of the cauda equina blood flow was calculated. The increase rate of the cauda equina blood flow (%)=(B−A)/A×100 • A: the cauda equina blood flow before the administration of the test compound • B: the cauda equina blood flow after the administration of the test compound

Structure (SMILES) | the increase rate of the cauda equina blood flow [%] | decrease of the blood pressure [mmHg]
O=C(O)c1csc(SCCN2C(=O)OC[C@@H]2/C=C/[C@@H](O)C2(CCCCF)CCC2)n1 [compound 8-1, 2-{[2-((4S)-4-{(1E,3R)-3-[1-(4-fluorobutyl)cyclobutyl]-3-hydroxy-1-propenyl}-2-oxo-1,3-oxazolidin-3-yl)ethyl]sulfanyl}-1,3-thiazole-4-carboxylic acid] | 35 | 6
CC(O)(C/C=C/[C@H]1CCC(=O)[C@@H]1CCSc1nc(C(=O)O)cs1)CC1CCCCC1 (stereo partly drawn) [compound 53, 2-[(2-{(1R,2R)-2-[(1E)-5-cyclohexyl-4-hydroxy-4-methyl-1-pentenyl]-5-oxocyclopentyl}ethyl)sulfanyl]-1,3-thiazole-4-carboxylic acid] | 31 | 10
